As a reminder, the mass density is the mass of a sample divided by its volume. One may read the vapor or sublimation pressure as the equilibrium pressure above the liquid or solid. What is called refractive index is a measure of how strongly the sample bends light.

Molecules are shown by their SMILES. ± gives the expanded uncertainty stated by the source.

This note sets out measurements from the NIST ThermoML archive (doi:10.1021/je060314n).

The conditions of data set [1]: Liquid; for mass density: 298.15 K, 101.33 kPa, Vibrating tube method.
A short description of data set [2]: refractive index (Na D-line) (dimensionless). The following applies: 298.15 K; 101.33 kPa; Liquid; Standard Abbe refractometry.

For the molecule `CCCCOC(=O)CC` [butyl propanoate], the mass density in data set [1] was determined as 870.88 ± 0.23 kg/m3. Moreover, the “vapor or sublimation pressure” value in data set [1] (418.69 K) was 101.3 ± 2 kPa. For the same molecule, in data set [2], the refractive index worked out at 1.3992 ± 0.0005.
Consider `CCCOCCC` [dipropyl ether], for which, in data set [1], the mass density is reported as 741.81 ± 0.16 kg/m3. For the same molecule, the “vapor or sublimation pressure” value in data set [1] (363.16 K) is recorded as 101.3 ± 2 kPa. The refractive index in data set [2] stood at 1.3784 ± 0.0005.
As to `CCCO` [propan-1-ol], the mass density in data set [1] came out at 799.62 ± 0.14 kg/m3. Further, the “vapor or sublimation pressure” value in data set [1] (369.75 K) is 101.3 ± 2 kPa. The refractive index in data set [2] is given as 1.3836 ± 0.0005.
